We go through 1 molecule from patent publication US20060058383A1 (priority 2004, published 2006).

A value given as a limit tells only on which side of the number the result lay.

Experiment [1] has as its system HL-60 leukemia cells. Nature of the experiment: Drug combination index, median-effect analysis. It is filed as cell-based, human. To be noted: combination with rapamycin (100 ng/ml), 24 h; CI less than 1 = synergistic. The procedure: (§1) FIGS. 35A-35D show synergistic cytotoxic effect of rapamycin and glycolycin (3-BrOP) in human lymphoma and leukemia cells. In FIG. 35A, the human lymphoma Raji cells were treated with 3-BrOP (30 μM), rapamycin (100 ng/ml), or their combinations as indicated, and apoptosis was measured by flow cytometry analysis after the cells were double-stained with annexin-V and PI as described in the Examples. In case of drug combination, cells were first treated with rapamycin for 18 h before addition of 3-BrOP and incubated for an additional 24 h or 48 h. In FIG. 35B, there is concentration-dependent induction of loss of cell viability by 3-BrOP in the presence and absence of rapamycin (100 ng/ml, 24 h) in Raji cells. Cells were double-stained with annexin-V and PI followed by flow cytometry analysis, and viable cells were expressed as % of control. […] Cell viability was determined as described above.
(§2) The above observations prompted the present inventors to use a formal drug combination analysis to determine if rapamycin and 3-BrOP have a synergistic effect. […] Cells were treated with various concentrations of 3-BrOP in the presence of a fixed concentration of rapamycin (100 ng/ml) for 24 h, and the percentage of apoptotic cells was quantitated by flow cytometry analysis using annexin-V/PI double staining. […]

For experiment [2], the system named is Raji cells. Nature of the experiment: Drug combination index, median-effect analysis. To be noted: combination with rapamycin (100 ng/ml), 24 h; CI less than 1 = synergistic. Format: cell-based, human. How it is done:
as §1, §2

Experiment [3] relates to Raji cells. The experiment is described as follows: Cellular glucose uptake, [3H]-2-deoxyglucose. Format: cell-based, human. To be noted: 2 h. The procedure: After the samples were washed three times with cold PBS, the radioactivity in the cell pellets was quantified by liquid scintillation counting. […] Intracellular nucleotides were extracted from the cells with 0.4 N of perchloric acid (PCA) for 10 min in ice-bath, neutralization with concentrated KOH to pH 7.0, and analyzed by HPLC analysis as described previously (Xu et al., 2005; Seymour et al., 1996). The intracellular ATP contents were calculated using the ATP standard curve generated under identical HPLC conditions, and normalized by equal cell number. The relative cellular ATP levels were expressed as percent of the control cells.

The test system of experiment [4] is cancer cells. The experiment is described as follows: In vitro anticancer activity versus other glycolytic inhibitors. It is filed as cell-based.

Turning to `CCCOC(=O)C(=O)CBr` [Glycolycin, propyl 3-bromo-2-oxopropionate], the “drug combination index (CI)” value in experiment [1] and in experiment [2] was less than 1.0 in each case. The entries for the “decrease of glucose uptake” value in experiment [3] (30 μM) and in experiment [3] (50 μM) were 33% and 71%, respectively. In addition, the inhibition at 30 µM in experiment [3] (Homo sapiens, Raji, 30 μM, in the presence of rapamycin (100 ng/ml, 18 h pre-treatment)) came out at 70%. For the same molecule, the inhibition at 50 µM in experiment [3] (Homo sapiens, Raji, 50 μM, combination with 100 ng/ml of rapamycin (18 h pre-treatment)) was determined as 94%. Also, in experiment [4], the “potency as measured by IC50 relative to currently available glycolytic inhibitors with a similar mechanism of action” value was 10-20 fold.
